Reference: patent US12404249B2, “Heterocyclic derivatives and use thereof” (C&C RESEARCH LABORATORIES, priority 2018, dated 2025)

How the values were obtained:
STAT3 = molecular target: T1, STAT3 (Homo sapiens, UniProt P40763); assay: STAT3 activation inhibition assay (reporter gene assay, LNcaP stable cell line, IL-6 stimulated); assay type: cell-based; details: LNcaP stable cell line [plasmid STAT3-TA-luc], IL-6 10 ng/mL, 48 hours, luciferase activity; read-out: IC50 (μM) pSTAT3
T1 construct: endogenous in cells; host or cells: LNCaP (human prostate cancer) stably carrying pSTAT3-TA-luc reporter plasmid
T1 sequence (P40763 whole entry): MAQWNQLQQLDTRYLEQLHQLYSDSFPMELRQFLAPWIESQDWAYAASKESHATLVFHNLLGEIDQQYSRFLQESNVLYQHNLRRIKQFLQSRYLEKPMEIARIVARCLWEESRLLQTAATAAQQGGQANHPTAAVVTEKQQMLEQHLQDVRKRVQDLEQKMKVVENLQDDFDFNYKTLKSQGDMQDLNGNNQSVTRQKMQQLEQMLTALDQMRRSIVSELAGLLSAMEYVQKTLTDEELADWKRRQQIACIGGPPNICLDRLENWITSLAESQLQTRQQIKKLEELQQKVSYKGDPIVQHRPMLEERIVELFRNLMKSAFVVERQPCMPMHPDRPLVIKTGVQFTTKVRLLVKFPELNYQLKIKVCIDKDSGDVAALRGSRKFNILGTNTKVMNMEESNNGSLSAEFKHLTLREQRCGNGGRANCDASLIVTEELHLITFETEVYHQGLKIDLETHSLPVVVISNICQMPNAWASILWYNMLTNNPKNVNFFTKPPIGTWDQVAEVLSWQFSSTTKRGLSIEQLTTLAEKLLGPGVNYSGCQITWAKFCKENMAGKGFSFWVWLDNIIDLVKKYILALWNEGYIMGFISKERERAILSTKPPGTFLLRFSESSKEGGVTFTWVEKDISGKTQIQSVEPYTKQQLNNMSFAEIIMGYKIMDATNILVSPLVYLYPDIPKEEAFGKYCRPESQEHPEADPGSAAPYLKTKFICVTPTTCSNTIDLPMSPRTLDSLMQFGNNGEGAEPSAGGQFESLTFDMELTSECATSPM
Experimental: Cancer cell lines used for evaluating the compounds of the Examples were purchased from ATCC (American Type Culture Collection) or KCLB (Korean Cell Line Bank), and cultured according to the vendor's recommendation. The human prostate cancer cell line stably expressing the STAT3 promoter (LNcaP stable cell line [plasmid STAT3-TA-luc])—which was prepared to evaluate the inhibitory effect of the compounds of the Examples against dimerization of STAT3—was cultured in RPMI1640 (Cat no. 11875, Gibco), 10% fetal bovine serum (Cat no. SH30071.03, Hyclone) and 150 μg/mL G418 solution (Cat no. 04 727 894 001, Roche).
The reporter gene assay of LNcap stable cell line was carried out by the use of RPMI 1640 medium containing 3% DCC-FBS (without G-418). The cell line was dispensed into two (2) white 96-well plates at 30,000 cells/well/50 μL. The cell line was incubated for 24 hours under the condition of 37° C. and 5% CO2, and then the Example compounds of 50 mM DMSO stock were diluted to various concentrations and treated to two (2) white 96-well plates containing cells. Then, IL-6 was treated to a final concentration of 10 ng/mL. After the treatment of Example compounds and IL-6, the cells were cultured for 48 hours under the condition of 37° C. and 5% CO2. After 48 hours, the 96-well plates were observed under a microscope to record the presence or absence of drug precipitation and specificities, and the 96-well plates were kept at room temperature for 30 minutes. Then, in the case of the first 96-well plate, the culture medium on the plate was removed to measure the luciferase activity, and treated with passive lysis buffer at 20 µL/well and shaken for 30 minutes. The luciferase activity was measured on microLUMA LB96P (BERTHOLD) or Centro XS LB 960 (BERTHOLD) instrument using Luciferase assay system (Cat No. E1501, Promega Corporation). In the case of the second 96-well plate, 20 μL of Glo-mix solution was added to measure cytotoxicity by the compounds of the Examples, and the plate was well shaken for 10 minutes and analyzed on microLUMA LB96P (BERTHOLD) instrument using Glo-vial protocol. As a negative control, a 96 well-plate in which culture medium was added but cells were not plated was used. As a positive control, a 96 well-plate in which cells were plated and 0.1% DMSO and culture medium containing stimulation were added was used.
The results of evaluating the inhibitory effects of the compounds of the Examples against dimerization of STAT3 and STAT1 via STAT3 and STAT1 reporter gene assay are represented in Table 1.

[1] = system: prostate cancer cell line (LNCap); assay: Cell growth inhibition assay (Celltiter Glo); assay type: cell-based; details: Homo sapiens, LNCap cells, 120 hours incubation
Experimental: Cancer cell inhibitory effects by the compounds of the Examples were evaluated as follows. The prostate cancer cell line (LNCap) used was cultured under the condition according to the vendor's recommendation. LNCap was dispensed into a 96-well plate at 10,000 cells/well. After incubation under the condition of 37° C. and 5% CO2 for 24 hours, the Example compounds of 50 mM DMSO stock were diluted to various concentrations and treated to the 96-well plate containing cells. After treatment of the Example compounds, LNCap cells were incubated in an incubator (37° C., 5% CO2) for 120 hours. After each incubation time, the 96-well plate was observed under a microscope to record the presence or absence of drug precipitation and specificities, and the 96-well plate was kept at room temperature for 30 minutes. Then, after addition of 20 μL of Celltiter Glo solution, the 96-well plate was well shaken for 30 minutes. The growth inhibitory activity was measured on microLUMA LB96P (BERTHOLD) instrument using Glo-vial protocol. As a negative control, a 96 well-plate in which culture medium was added but cells were not plated was used. As a positive control, a 96 well-plate in which cells were plated and 0.1% DMSO instead of drugs was added was used. The results of growth inhibitory effects of the Example compounds on prostate cancer cell line are represented in Table 2.

| Compound | IC50 (STAT3) [µM] | IC50 [1] [µM] |
| --- | --- | --- |
| CS(=O)(=O)Nc1ccc(CCNc2cc(Cl)nc3cc(OC(F)(F)F)ccc23)cc1 [Example 24, N-(4-(2-((2-chloro-7-(trifluoromethoxy)quinolin-4-yl)amino)ethyl)phenyl)methanesulfonamide] | 4.1 | 6.2 |
| COc1cccc2c(NCCc3ccc([N+](=O)[O-])cc3)cc(Cl)nc12 [Example 10, 2-chloro-8-methoxy-N-(4-nitrophenethyl)quinolin-4-amine] | 3.9 | 2.6 |
| Cc1cc(NCCc2ccc([N+](=O)[O-])cc2)c2ccccc2n1 [Example 5, 2-methyl-N-(4-nitrophenethyl)quinolin-4-amine] | 38.1 | 47.3 |
| O=[N+]([O-])c1ccc(CCNc2nc(Cl)nc3[nH]cnc23)cc1 [Example 47, 2-chloro-N-(4-nitrophenethyl)-9H-purin-6-amine] | > 50 | > 50 |
| O=C(c1ccccc1)c1ccc2nc(Cl)cc(NCCc3ccc([N+](=O)[O-])cc3)c2c1 [Example 34, (2-chloro-4-((4-nitrophenethyl)amino)quinolin-6-yl)(phenyl)methanone] | 6.9 | 15.7 |
| O=[N+]([O-])c1ccc(CCNc2cc(C(F)(F)F)nc3ccccc23)cc1 [Example 49, N-(4-nitrophenethyl)-2-(trifluoromethyl)quinolin-4-amine] | 5.6 | 14.1 |
| CCc1cccc2c(NCCc3ccc([N+](=O)[O-])cc3)cc(Cl)nc12 [Example 8, 2-chloro-8-ethyl-N-(4-nitrophenethyl)quinolin-4-amine] | 7.8 | 16 |
| COc1ccc2nc(Cl)cc(NCCc3ccc(NS(C)(=O)=O)cc3)c2c1 [Example 11, N-(4-(2-((2-chloro-6-methoxyquinolin-4-yl)amino)ethyl)phenyl)methanesulfonamide] | 1.6 | 2.6 |
| O=C(O)COc1ccc2nc(Cl)cc(NCCc3ccc([N+](=O)[O-])cc3)c2c1 [Example 43, 2-((2-chloro-4-((4-nitrophenethyl)amino)quinolin-6-yl)oxy)acetic acid] | > 50 | > 50 |
| O=[N+]([O-])c1ccc(CCNc2cc(Cl)nc3ccc(Oc4ccccc4)cc23)cc1 [Example 33, 2-chloro-N-(4-nitrophenethyl)-6-phenoxyquinolin-4-amine] | 6 | > 50 |
| O=[N+]([O-])c1ccc(CCNc2cc(Cl)nc3c(F)cccc23)cc1 [Example 31, 2-chloro-8-fluoro-N-(4-nitrophenethyl)quinolin-4-amine] | 0.12 | 0.21 |
| O=C(c1ccc2nc(Cl)cc(NCCc3ccc([N+](=O)[O-])cc3)c2c1)N1CCOCC1 [Example 42, (2-chloro-4-((4-nitrophenethyl)amino)quinolin-6-yl)(morpholino)methanone] | > 50 | > 50 |
| CS(=O)(=O)Nc1ccc(CCNc2ccnc3ccc(F)cc23)cc1 [Example 21, N-(4-(2-((6-fluoroquinolin-4-yl)amino)ethyl)phenyl)methanesulfonamide] | 2.3 | 2.4 |
| CS(=O)(=O)Nc1ccc(CCNc2ncnc3ccccc23)cc1 [Example 38, N-(4-(2-(quinazolin-4-ylamino)ethyl)phenyl)methanesulfonamide] | 0.17 | 0.18 |
| O=[N+]([O-])c1ccc(CCNc2cc(Cl)nc3ccc(F)cc23)cc1 [Example 14, 2-chloro-6-fluoro-N-(4-nitrophenethyl)quinolin-4-amine] | 0.59 | 1.9 |
| O=Nc1ccc(CCNc2cc(Cl)nc3ccccc23)cc1 [Example 20, 2-chloro-N-(4-nitrosophenethyl)quinolin-4-amine] | 0.75 | 0.74 |

| Compound | IC50 (STAT3) [µM] | IC50 [1] [µM] |
| --- | --- | --- |
| CCOC(=O)COc1ccc2nc(Cl)cc(NCCc3ccc([N+](=O)[O-])cc3)c2c1 [Example 37, ethyl 2-((2-chloro-4-((4-nitrophenethyl)amino)quinolin-6-yl)oxy)acetate] | 20.3 | 10.6 |
| O=[N+]([O-])c1ccc(CCNc2ncnc3ccccc23)cc1 [Example 36, N-(4-nitrophenethyl)quinazolin-4-amine] | 0.023 | 0.093 |
| NC(=O)c1ccc2nc(Cl)cc(NCCc3ccc([N+](=O)[O-])cc3)c2c1 [Example 41, 2-chloro-4-((4-nitrophenethyl)amino)quinolin-6-carboxamide] | 9.8 | > 50 |
| CS(=O)(=O)Nc1ccc(CCNc2ccnc3cc(OC(F)(F)F)ccc23)cc1 [Example 25, N-(4-(2-((7-(trifluoromethoxy)quinolin-4-yl)amino)ethyl)phenyl)methanesulfonamide] | 1.9 | 9.6 |
| CS(=O)(=O)Nc1ccc(CCNc2cc(Cl)nc3ccccc23)cc1 [Example 7, N-(4-(2-((2-chloroquinolin-4-yl)amino)ethyl)phenyl)methanesulfonamide] | 0.038 | 0.078 |
| COc1ccc2nc(Cl)cc(NCCc3ccc([N+](=O)[O-])cc3)c2c1 [Example 9, 2-chloro-6-methoxy-N-(4-nitrophenethyl)quinolin-4-amine] | 3 | 7.7 |
| O=[N+]([O-])c1ccc(CCNc2cc(Cl)nc3cc(OC(F)(F)F)ccc23)cc1 [Example 12, 2-chloro-N-(4-nitrophenethyl)-7-(trifluoromethoxy)quinolin-4-amine] | 5.8 | 9.3 |
| O=[N+]([O-])c1ccc(CCNc2cc(Cl)nc3cccc(F)c23)cc1 [Example 29, 2-chloro-5-fluoro-N-(4-nitrophenethyl)quinolin-4-amine] | 0.64 | 2.5 |
| O=[N+]([O-])c1ccc(CCNc2cc(Cl)nc3cccc(OC(F)(F)F)c23)cc1 [Example 13, 2-chloro-N-(4-nitrophenethyl)-5-(trifluoromethoxy)quinolin-4-amine] | 3.1 | 2.5 |
| COc1cc(NCCc2ccc(NS(C)(=O)=O)cc2)c2ccccc2n1 [Example 76, N-(4-(2-((2-methoxyquinolin-4-yl)amino)ethyl)phenyl)methanesulfonamide] | 1.2 | 3.9 |
| O=[N+]([O-])c1ccc(CCNc2cncc3ccccc23)cc1 [Example 62, N-(4-nitrophenethyl)isoquinolin-4-amine] | 12.1 | 23.5 |
| CS(=O)(=O)Nc1ccc(CCNc2nccc3nccnc23)cc1 [Example 71, N-(4-(2-(pyrido[3,4-b]pyrazin-5-ylamino)ethyl)phenyl)methanesulfonamide] | 9.6 | 20.9 |
| NS(=O)(=O)c1ccc(CCN(CCc2ccccc2)c2cc(Cl)nc3ccccc23)cc1 [Example 4, 4-(2-((2-chloroquinolin-4-yl)(phenethyl)amino)ethyl)benzenesulfonamide] | 20.9 | > 50 |
| CNc1cc(NCCc2ccc([N+](=O)[O-])cc2)c2ccccc2n1 [Example 51, N^2-methyl-N^4-(4-nitrophenethyl)quinolin-2,4-diamine 2,2,2-trifluoroacetate] | 24.1 | 27.7 |
| Nc1ccc(CCNc2cc(Cl)nc3ccccc23)cc1 [Example 6, N-(4-aminophenethyl)-2-chloroquinolin-4-amine] | 0.71 | 0.69 |
